One data set relates to Amar. retro. In words: preemergence treatment in the greenhouse, % damage. The data set is classed as in vivo. In a few lines:
(§1)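 Ratings, on a 0 to 100 scale, show injury where 100 means no emergence or complete destruction of visible parts. Compounds in water were sprayed either onto freshly sown soil, which was then watered and hooded, or onto plants 3–10 cm tall. Observation lasted 4–6 weeks.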

Another data set has as its system Bromus spp. As to the kind of experiment: preemergence treatment in the greenhouse, % damage. The data set is classed as in vivo. In outline:
as §1

For the next data set, the system named is Cyp. diff. As to the kind of experiment: preemergence treatment in the greenhouse, % damage. The format is in vivo. In a few lines:
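Seeds sown in sandy loam (~1.5% humus); pre-emergence: agents sprayed in water onto soil surface immediately after sowing, then irrigated and hooded until rooting. Post-emergence: plants treated at 3–10 cm height, unhooded. Greenhouse at 25–40 °C or 15–30 °C by species; rates in kg/ha a.i.; damage scored 0–100 after 4–6 weeks.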

A further data set concerns Poa annua. As to the kind of experiment: preemergence treatment in the greenhouse, % damage. The format is in vivo. In outline:
as §1

The test system of another data set is Sorgh. halep. As to the kind of experiment: preemergence treatment in the greenhouse, % damage. The data set is classed as in vivo. In outline:
as §1

Data set [1] relates to Alopec. myosur. As to the kind of experiment: preemergence application in the open, % damage. The format is in vivo. Particulars: 2.0 kg/ha. How it is done: (§2) The experiments were carried out on small plots. The soil was a sandy loam having a pH of from 5 to 6 and containing from 1 to 1.5% humus. The treatment was preemergence, the active ingredients being applied immediately or at the latest 3 days after sowing. The crop plants were sown in rows. The weed flora was made up of the most widely varying species and was natural; the weed flora depended on the time of the year and in part on the crop (e.g., spring-germinating, summer-germinating). The substances were emulsified or suspended in water as the vehicle, and applied by means of a motor-driven plot spray mounted on a hitch. When no rain fell, the plots were watered to ensure germination and growth of the crop plants and weeds. All the experiments were run for several weeks. Over this period, assessments were made at certain intervals on the 0 to 100 scale.

In the next data set the test system is Anth./Matric. In words: preemergence application in the open, % damage. As to conditions: 2.0 kg/ha. The data set is classed as in vivo. How it is done:
as §2

In data set [2] the test system is Brassica napus. In words: preemergence application in the open, % damage. As to conditions: 2.0 kg/ha. The format is in vivo. How it is done: as §2
The test system of another data set is Lamium spp. In words: preemergence application in the open, % damage. The data set is classed as in vivo. Particulars: 2.0 kg/ha. How it is done: as §2
In a further data set the test system is Stellaria media. As to the kind of experiment: preemergence application in the open, % damage. The data set is classed as in vivo. Particulars: 2.0 kg/ha. How it is done: as §2
In another data set the test system is Avena fat. In words: postemergence application in the greenhouse, % damage. The format is in vivo. The source says: (§3) The vessels employed were plastic flowerpots having a volume of 300 cm^3; the substrate was a sandy loam containing about 1.5% humus. The seeds of the test plants (see Table 1) were sown shallow, and separated according to species. In the case of Cyperus esculentus, pregerminated tubers were planted. In the preemergence treatment, the active ingredients were then immediately applied to the surface of the soil. They were suspended or emulsified in water as the vehicle, and sprayed through atomizing nozzles. After the agents had been applied, the vessels were lightly sprinkler-irrigated to set germination and growth going, and to activate the chemical agents. The vessels were then covered with transparent plastic hoods until the plants had taken root. This cover ensured uniform germination of the test plants (to the extent that this was not impaired by the chemicals), and prevented readily volatile substances from evaporating.
(§4) For postemergence treatment, the plants were first grown to a height of from 3 to 10 cm, depending on their habit, before treated. Hoods were not placed on the pots. The experiments were set up in the greenhouse, hotter areas (25° to 40° C.) being preferred for heat-loving species, and 15° to 30° C. for plants from moderate climates. The experiments were carried out for from 4 to 6 weeks. During this period the plants were tended and their reaction to the various treatments was assessed. The following tables contain the substances investigated, the application rates in kg/ha of active ingredient, and the test plant species. Assessments were made on a 0 to 100 scale, 0 denoting no damage or normal emergence, and 100 denoting no emergence or complete destruction of at least the visible plant parts.

For data set [3], the system named is Setaria spp. Described as above. The format is in vivo.
Excerpt: as §3, §4

The next data set deals with Stell. med. The description is as above. The format is in vivo.
Excerpt: as §3, §4

The next data set has as its system Cyper. escul. The description is as above. The format is in vivo, Cyperus esculentus.
Excerpt: as §3, §4

Data set [4] deals with Alopec. myosur. In words: preemergence treatment in the greenhouse, % damage. The data set is classed as in vivo. In outline: as §1
Another data set concerns Cyperus ferax. As to the kind of experiment: preemergence treatment in the greenhouse, % damage. The format is in vivo. In a few lines:
as §1

A further data set deals with Echin. c.g. In words: preemergence treatment in the greenhouse, % damage. The data set is classed as in vivo. In a few lines:
as §1

The test system of a further data set is Matric. spp. As to the kind of experiment: preemergence treatment in the greenhouse, % damage. The format is in vivo. In outline: as §1
The subject of data set [5] is Setaria spp. As to the kind of experiment: preemergence treatment in the greenhouse, % damage. The data set is classed as in vivo. In a few lines: as §1
For a further data set, the system named is Glyc. max. As to the kind of experiment: preemergence treatment in the greenhouse, % damage. The data set is classed as in vivo, Glycine max. In outline: as §1
The next data set concerns Beta vulg. As to the kind of experiment: preemergence treatment in the greenhouse, % damage. The data set is classed as in vivo, Beta vulgaris.
Excerpt: as §3, §4

The test system of data set [6] is Brassica napus. In words: preemergence treatment in the greenhouse, % damage. The data set is classed as in vivo. Particulars: 2.0 kg/ha. In a few lines:
as §1

For the next data set, the system named is Solanum nigrum. As to the kind of experiment: preemergence treatment in the greenhouse, % damage. The data set is classed as in vivo. As to conditions: 2.0 kg/ha. In outline:
as §1

The subject of a further data set is Zea mays. In words: preemergence treatment in the greenhouse, % damage. As to conditions: 2.0 kg/ha. The data set is classed as in vivo. In a few lines: as §1

Take `Cc1cc(C)n(CN(C(=O)CCl)c2c(C)cccc2C)n1` [Compound 38]: the “% damage” value in the data set on Amar. retro. (0.125 kg/ha) is 75%; with Amar. retro. (0.25 kg/ha), 100%; with Bromus spp. (0.125 kg/ha) it was 95%; with Bromus spp. (0.25 kg/ha) it was 100%; in the data set on Cyp. diff. (0.125 kg/ha), 100%; in the data set on Cyp. diff. (0.25 kg/ha) it was 100%. Besides, the “% damage” value with Poa annua (0.125 kg/ha) stood at 100%; in the data set on Poa annua (0.25 kg/ha), 100%; with Sorgh. halep. (0.125 kg/ha) it was 70%; with Sorgh. halep. (0.25 kg/ha), 95%; in the data set with Alopec. myosur. [1], 80%; in the data set with Anth./Matric., 100%. Further, the “% damage” value with Brassica napus [2] was found to be 0%; in the data set on Lamium spp., 100%; with Stellaria media, 88%; in the data set with Avena fat. (1.0 kg/ha), 70%; with Avena fat. (2.0 kg/ha) it was 90%; in the data set with Setaria spp. [3] (1.0 kg/ha), 85%. Further, the “% damage” value in the data set with Setaria spp. [3] (2.0 kg/ha) is 85%; in the data set on Stell. med. (1.0 kg/ha), 100%; with Stell. med. (2.0 kg/ha) it was 100%; in the data set with Cyper. escul. (1.0 kg/ha), 80%; with Cyper. escul. (2.0 kg/ha), 80%.

`CCc1cccc(CC)c1N(Cn1cc(OC)cn1)C(=O)CCl`: the “% damage” value in the data set with Alopec. myosur. [4] (1.0 kg/ha) is listed as 99%; in the data set on Alopec. myosur. [4] (2.0 kg/ha), 99%; in the data set with Bromus spp. (1.0 kg/ha), 98%; in the data set with Bromus spp. (2.0 kg/ha) it was 98%; in the data set on Cyperus ferax (1.0 kg/ha) it was 100%; with Cyperus ferax (2.0 kg/ha) it was 100%. Besides, the “% damage” value amounted to 100% in the data set on Echin. c.g. (1.0 kg/ha); 100% in the data set on Echin. c.g. (2.0 kg/ha); 90% with Matric. spp. (1.0 kg/ha); 98% with Matric. spp. (2.0 kg/ha); 100% in the data set on Setaria spp. [5] (1.0 kg/ha); 100% with Setaria spp. [5] (2.0 kg/ha). For the same compound, the “% damage” value in the data set on Glyc. max (1.0 kg/ha) is 0%; in the data set on Glyc. max (2.0 kg/ha) it was 0%; with Beta vulg. (1.0 kg/ha) it was 10%; in the data set with Beta vulg. (2.0 kg/ha) it was 15%.

Take `Cc1ccccc1N(Cn1nc(C)c(C)c1C)C(=O)CCl`: the “% damage” value in the data set with Alopec. myosur. [4] (2.0 kg/ha) amounted to 50%; in the data set with Brassica napus [6] it was 30%; in the data set on Bromus spp. (2.0 kg/ha) it was 80%; in the data set with Echin. c.g. (2.0 kg/ha), 55%; with Matric. spp. (2.0 kg/ha), 95%; in the data set on Setaria spp. [5] (2.0 kg/ha), 100%. Also, the “% damage” value in the data set with Solanum nigrum is 100%; in the data set with Zea mays, 10%.

Regarding `Cc1ccccc1N(Cn1nccc1C)C(=O)CCl`, the “% damage” value in the data set on Alopec. myosur. [4] (2.0 kg/ha) was 90%; in the data set with Brassica napus [6], 10%; in the data set on Bromus spp. (2.0 kg/ha), 90%; with Echin. c.g. (2.0 kg/ha), 95%; in the data set on Matric. spp. (2.0 kg/ha), 90%; with Setaria spp. [5] (2.0 kg/ha), 100%. Also, the “% damage” value in the data set with Solanum nigrum is on record as 100%; in the data set with Zea mays, 0%.

For the origin of these results see patent US4593104A, “2-halo-N-(azole-1-yl-methyl)-substituted acetanilides” (BASF Aktiengesellschaft, priority 1976, dated 1986).
